Patent EP0454367B1, “Growth hormone releasing factor analogs” (ELI LILLY AND COMPANY, priority 1990, dated 1991)
Starred links: 1 amine or outer side, 2 acyl side, 3 side chain; linkers in the order of their positions; H or OH if unused. Non-standard residues stand in square brackets, D forms with d. Residues, ends and D or L forms follow the SMILES beside them. *: point of attachment. X3 = O=C([C@H](Cc1ccc(O)cc1)N(CC(O)CO)[*:1])[*:2]; X2 = C[C@@H](C(=O)[*:2])N(CC(O)CO)[*:1]; X1 = O=C([C@@H]1CCCN1CC(O)CO)*; NMeA = CN[C@@H](C)C(=O)O

The compounds below were run against T1, Rat Pituitary Cells (Rattus norvegicus, UniProt Q02644) (assay: GRF-analog mediated GH secretion from rat pituitary cells (method of Heiman et al.)). Details: EC50 [R^12,T^15,R^21,L^27]hGRF(1-29)NH2 / EC50 analog.
T1 sequence (Q02644 23-464): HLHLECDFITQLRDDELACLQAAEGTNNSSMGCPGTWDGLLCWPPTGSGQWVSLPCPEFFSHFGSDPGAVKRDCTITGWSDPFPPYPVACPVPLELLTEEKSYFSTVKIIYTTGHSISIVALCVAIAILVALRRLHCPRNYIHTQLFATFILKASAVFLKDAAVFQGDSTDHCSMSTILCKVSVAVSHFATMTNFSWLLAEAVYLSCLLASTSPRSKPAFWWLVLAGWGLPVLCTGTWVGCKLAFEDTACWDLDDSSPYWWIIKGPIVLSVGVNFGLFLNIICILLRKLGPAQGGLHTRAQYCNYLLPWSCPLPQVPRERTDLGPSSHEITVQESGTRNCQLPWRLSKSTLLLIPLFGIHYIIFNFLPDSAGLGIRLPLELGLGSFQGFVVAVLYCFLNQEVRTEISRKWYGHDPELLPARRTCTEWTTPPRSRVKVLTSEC
Type: cell-based
Procedure: The polypeptide compounds of the invention may be assayed in numerous systems. One in vivo assay is carried out in sodium pentobarbital-anesthetized rats. Wehrenberg et al., Biochem. Biophys. Res. Commun. 109:382 (1982). Growth hormone release is measured in vitro with rat anterior pituitary cells. Heiman et al., Endocrinol. 116:410 (1985). Assays are also performed in wether lambs as described in the Examples provided hereinafter.
Various bGRF peptide analogs were synthesized by the solid phase synthesis method as described in U.S. Patent 4,617,149. The compounds were assayed in rat pituitary cells by the method of Heiman et al., Endocrinol. 116:410 (1985). The analogs are based on the sequence of the first 29 amino acids of human growth hormone releasing factor with the substitutions listed.

| Compound | Relative Potency (% of std) |
| --- | --- |
| CC[C@H](C)[C@H](NC(=O)[C@H](C)NC(=O)[C@H](CC(=O)O)NC(=O)[C@H](C)NC(=O)[C@H](Cc1ccc(O)cc1)NC(=O)[C@H](C)NCC(O)CO)C(=O)N[C@@H](Cc1ccccc1)C(=O)N[C@H](C(=O)N[C@@H](CC(N)=O)C(=O)N[C@@H](CO)C(=O)N[C@@H](Cc1ccc(O)cc1)C(=O)N[C@@H](CCCNC(=N)N)C(=O)N[C@@H](CCCNC(=N)N)C(=O)N[C@H](C(=O)N[C@@H](CC(C)C)C(=O)N[C@H](C(=O)N[C@@H](CCC(N)=O)C(=O)N[C@@H](CC(C)C)C(=O)N[C@@H](CO)C(=O)N[C@@H](C)C(=O)N[C@@H](CCCNC(=N)N)C(=O)N[C@@H](CCCNC(=N)N)C(=O)N[C@@H](CC(C)C)C(=O)N[C@@H](CC(C)C)C(=O)N[C@@H](CCC(N)=O)C(=O)N[C@@H](CC(=O)O)C(=O)N[C@H](C(=O)N[C@@H](CC(C)C)C(=O)N[C@@H](CO)C(=O)N[C@@H](CCCNC(=N)N)C(N)=O)[C@@H](C)CC)[C@@H](C)O)C(C)C)[C@@H](C)O (some centres unmarked) [DHP[A^0,R^12,T^15,R^21,L^27]hGRF(1-29)NH2] (H-[X2]YADAIFTNSYRRVLTQLSARRLLQDILSR-NH2) | .335 % of std |
| CC[C@H](C)[C@H](NC(=O)[C@H](C)NC(=O)[C@H](CC(=O)O)NC(=O)[C@H](C)NC(=O)[C@H](Cc1ccc(O)cc1)NC(=O)[C@H](C)NC)C(=O)N[C@@H](Cc1ccccc1)C(=O)N[C@H](C(=O)N[C@@H](CC(N)=O)C(=O)N[C@@H](CO)C(=O)N[C@@H](Cc1ccc(O)cc1)C(=O)N[C@@H](CCCNC(=N)N)C(=O)N[C@@H](CCCNC(=N)N)C(=O)N[C@H](C(=O)N[C@@H](CC(C)C)C(=O)N[C@H](C(=O)N[C@@H](CCC(N)=O)C(=O)N[C@@H](CC(C)C)C(=O)N[C@@H](CO)C(=O)N[C@@H](C)C(=O)N[C@@H](CCCNC(=N)N)C(=O)N[C@@H](CCCNC(=N)N)C(=O)N[C@@H](CC(C)C)C(=O)N[C@@H](CC(C)C)C(=O)N[C@@H](CCC(N)=O)C(=O)N[C@@H](CC(=O)O)C(=O)N[C@H](C(=O)N[C@@H](CC(C)C)C(=O)N[C@@H](CO)C(=O)N[C@@H](CCCNC(=N)N)C(N)=O)[C@@H](C)CC)[C@@H](C)O)C(C)C)[C@@H](C)O [[N-Me-A^0,R^12,T^15,R^21,L^27]hGRF(1-29)NH2] (H-[NMeA]YADAIFTNSYRRVLTQLSARRLLQDILSR-NH2) | .17 % of std |
| CC[C@H](C)[C@H](NC(=O)[C@H](C)NC(=O)[C@H](CC(=O)O)NC(=O)[C@H](C)NC(=O)[C@H](Cc1ccc(O)cc1)NCC(O)CO)C(=O)N[C@@H](Cc1ccccc1)C(=O)N[C@H](C(=O)N[C@@H](CC(N)=O)C(=O)N[C@@H](CO)C(=O)N[C@@H](Cc1ccc(O)cc1)C(=O)N[C@@H](CCCNC(=N)N)C(=O)N[C@@H](CCCNC(=N)N)C(=O)N[C@H](C(=O)N[C@@H](CC(C)C)C(=O)N[C@H](C(=O)N[C@@H](CCC(N)=O)C(=O)N[C@@H](CC(C)C)C(=O)N[C@@H](CO)C(=O)N[C@@H](C)C(=O)N[C@@H](CCCNC(=N)N)C(=O)N[C@@H](CCCNC(=N)N)C(=O)N[C@@H](CC(C)C)C(=O)N[C@@H](CC(C)C)C(=O)N[C@@H](CCC(N)=O)C(=O)N[C@@H](CC(=O)O)C(=O)N[C@H](C(=O)N[C@@H](CC(C)C)C(=O)N[C@@H](CO)C(=O)N[C@@H](CCCNC(=N)N)C(N)=O)[C@@H](C)CC)[C@@H](C)O)C(C)C)[C@@H](C)O (some centres unmarked) [DHP[R^12,T^15,R^21,L^27]hGRF(1-29)NH2] (H-[X3]ADAIFTNSYRRVLTQLSARRLLQDILSR-NH2) | .8 % of std |
| CC[C@H](C)[C@H](NC(=O)[C@H](C)NC(=O)[C@H](CC(=O)O)NC(=O)[C@H](C)NC(=O)[C@H](Cc1ccc(O)cc1)NC(=O)[C@@H]1CCCN1CC(O)CO)C(=O)N[C@@H](Cc1ccccc1)C(=O)N[C@H](C(=O)N[C@@H](CC(N)=O)C(=O)N[C@@H](CO)C(=O)N[C@@H](Cc1ccc(O)cc1)C(=O)N[C@@H](CCCNC(=N)N)C(=O)N[C@@H](CCCNC(=N)N)C(=O)N[C@H](C(=O)N[C@@H](CC(C)C)C(=O)N[C@H](C(=O)N[C@@H](CCC(N)=O)C(=O)N[C@@H](CC(C)C)C(=O)N[C@@H](CO)C(=O)N[C@@H](C)C(=O)N[C@@H](CCCNC(=N)N)C(=O)N[C@@H](CCCNC(=N)N)C(=O)N[C@@H](CC(C)C)C(=O)N[C@@H](CC(C)C)C(=O)N[C@@H](CCC(N)=O)C(=O)N[C@@H](CC(=O)O)C(=O)N[C@H](C(=O)N[C@@H](CC(C)C)C(=O)N[C@@H](CO)C(=O)N[C@@H](CCCNC(=N)N)C(N)=O)[C@@H](C)CC)[C@@H](C)O)C(C)C)[C@@H](C)O (some centres unmarked) [DHP[P^0,R^12,T^15,R^21,L^27]hGRF(1-29)NH2] (X1-YADAIFTNSYRRVLTQLSARRLLQDILSR-NH2) | .13 % of std |
| CC[C@H](C)[C@H](NC(=O)[C@H](C)NC(=O)[C@H](CC(=O)O)NC(=O)[C@H](C)NC(=O)[C@H](Cc1ccc(O)cc1)NC(=O)[C@@H]1CCCN1C(=O)[C@@H]1CCCN1CC(O)CO)C(=O)N[C@@H](Cc1ccccc1)C(=O)N[C@H](C(=O)N[C@@H](CC(N)=O)C(=O)N[C@@H](CO)C(=O)N[C@@H](Cc1ccc(O)cc1)C(=O)N[C@@H](CCCNC(=N)N)C(=O)N[C@@H](CCCNC(=N)N)C(=O)N[C@H](C(=O)N[C@@H](CC(C)C)C(=O)N[C@H](C(=O)N[C@@H](CCC(N)=O)C(=O)N[C@@H](CC(C)C)C(=O)N[C@@H](CO)C(=O)N[C@@H](C)C(=O)N[C@@H](CCCNC(=N)N)C(=O)N[C@@H](CCCNC(=N)N)C(=O)N[C@@H](CC(C)C)C(=O)N[C@@H](CC(C)C)C(=O)N[C@@H](CCC(N)=O)C(=O)N[C@@H](CC(=O)O)C(=O)N[C@H](C(=O)N[C@@H](CC(C)C)C(=O)N[C@@H](CO)C(=O)N[C@@H](CCCNC(=N)N)C(N)=O)[C@@H](C)CC)[C@@H](C)O)C(C)C)[C@@H](C)O (some centres unmarked) [DHP[P^-1,P^0,R^12,T^15,R^21,L^27]hGRF(1-29)NH2] (X1-PYADAIFTNSYRRVLTQLSARRLLQDILSR-NH2) | .14 % of std |
